Assay results: ChEMBL document CHEMBL1914397, “Daedalols A-C, fungal-derived BACE1 inhibitors” (Bioorg Med Chem, 2011)

Target: Beta-secretase 1 (Homo sapiens, UniProt P56817)
Experiment: Inhibition of BACE1-mediated amyloid precursor protein cleavage after 16 hrs by chemiluminescent enzyme-fragment complementation assay

Chain of Beta-secretase 1 (P56817 whole entry, the tested form may be a part): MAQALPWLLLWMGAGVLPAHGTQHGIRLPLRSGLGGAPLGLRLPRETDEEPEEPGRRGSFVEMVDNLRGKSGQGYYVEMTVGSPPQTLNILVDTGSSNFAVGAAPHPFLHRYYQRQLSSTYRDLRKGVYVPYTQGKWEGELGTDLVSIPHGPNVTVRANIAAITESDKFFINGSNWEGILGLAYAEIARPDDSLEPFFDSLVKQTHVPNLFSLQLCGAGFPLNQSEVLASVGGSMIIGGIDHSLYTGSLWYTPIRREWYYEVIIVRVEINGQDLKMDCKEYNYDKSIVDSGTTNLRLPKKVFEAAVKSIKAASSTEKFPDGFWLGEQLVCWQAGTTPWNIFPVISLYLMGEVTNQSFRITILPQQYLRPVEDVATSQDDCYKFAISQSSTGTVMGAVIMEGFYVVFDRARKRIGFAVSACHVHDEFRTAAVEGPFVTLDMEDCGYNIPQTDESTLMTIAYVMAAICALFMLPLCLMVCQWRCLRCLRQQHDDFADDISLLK

C[C@H](CC(=O)[C@@]1([C@H](C)C(=O)O)CO1)[C@H]1CC[C@@]2(C)C3=C(CC[C@]12C)[C@@]1(C)CC[C@@H](OC(=O)CC(=O)O)C(C)(C)[C@@H]1CC3 [DAEDALOL C]
IC50: 14.2 µM
